Reference: PMC5454942, “The Potential of Triterpenoids from Loquat Leaves (Eriobotrya japonica) for Prevention and Treatment of Skin Disorder” (International Journal of Molecular Sciences, 2017)
Values after ≈ are worked out from the molar mass of the structure shown. Values joined by “and” are separate entries in the source; they are usually repeats but may differ in a detail not shown here. Identical values can stand only once. Like-named read-outs stand apart in the source and are kept apart here.

Key:
[1] = Cell viability of B16 melanoma cells (MTT); settings: mouse
Protocol: (§1) This assay was performed as described by Arung et al.. The mouse melanoma cell line B16 was obtained from the Riken Bioresource Center Cell Bank (Tsukuba, Japan). The B16 melanoma cells were maintained in Eagle’s Minimal Essential Medium (EMEM, Nissui Chemical, Tokyo) supplemented with 10% (v/v) fetal bovine serum (FBS; Gibco, Carlsbad, CA, USA) and 0.09 mg/mL theophylline (Sigma-Aldrich, St. Louis, MO, USA). […] After 24 h, test samples were dissolved in DMSO (<0.2% per well) and sample solution were added to each well. Arbutin (Tokyo Kasei Kogyo, Tokyo) was used as a positive control. The cells were incubated for an additional 48 h, and then the medium was replaced with fresh medium containing each sample again. After 24 h, the melanin content and the cell viability were measured using a microplate reader (BioTek-ELX800, BioTek Instruments, Winooski, VT, USA) at 405 nm and 570 nm, respectively. Cell viability was measured using the MTT (3-(4,5-dimethylthiazol-2-yl)-2,5-diphenyltetrazolium bromide) method.

[2] = system: B16 melanoma cells; assay: Cell viability of B16 melanoma cells (MTT); settings: for Inhibition rate (100% − cell viability): B16 cells
Protocol: as §1

[3] = system: mushroom tyrosinase; assay: Tyrosinase inhibition assay; format: biochemical; settings: for inhibitory effect on tyrosinase (in words): L-DOPA as substrate; for inhibitory activity on tyrosinase (in words): L-tyrosine as substrate, relatively high concentrations
Protocol: Tyrosinase inhibition activity was evaluated by using L-tyrosine and L-DOPA as substrates, as described. Briefly, 333 μL of 2.5 mM L-tyrosine or L-DOPA solution (Sigma-Aldrich) was mixed with 600 μL of 0.1 M phosphate buffer (pH 6.8) and incubated at 25 °C. Then, 33 μL of the sample solution (dissolved in DMSO in various concentrations) and 33 μL of 1380 units/mL mushroom tyrosinase (Sigma-Aldrich) were added to the mixture. The optical density was measured at 475 nm up to the appropriate time. Kojic acid (Sigma-Aldrich) was used as the positive control; the final concentration is 3.3 μg/mL.

[4] = system: Propionibacterium acnes; assay: Anti-bacterial assay (growth inhibition, MIC/MBC by broth microdilution); format: cell-based; settings: for inhibition at 100 µg/mL: read-out: Inhibition Rate (P. acnes growth)
Protocol: The antibacterial assay was based mostly on the methods described by Tanaka et al. with slight modification. Propionibacterium acne (NBRC 107605) was used for the antibacterial assay. A single colony of the test strain was taken and 5 mL of Gifu anaerobic medium (GAM) broth (Nissui, Tokyo) was added to it. This culture was incubated at 37 °C for 30 h. It was then added to the bacterial suspension to prepare a bacterial concentration at 10^5 CFU/mL. The bacterial solution was used for the subsequent antibacterial assay. Each compound was dissolved in DMSO, and benzalkonium chloride (Wako) was used as a positive control. The plate was incubated at 37 °C for 30 h. Finally, bacterial growth was measured by a microplate reader at 630 nm. The MIC and MBC were evaluated by the standard broth microdilution method.

[5] = system: B16 melanoma cells; assay: Anti-melanogenesis assay (melanin content); format: cell-based, mouse; settings: for inhibition at 1 µg/mL: 1 μg/ml; for inhibition at 2.5 µg/mL: 2.5 μg/ml; for inhibition at 5 µg/mL: 5 μg/ml
Protocol: as §1

[6] = system: RBL-2H3 cells; assay: β-hexosaminidase release from IgE-stimulated RBL-2H3 mast cells; format: cell-based, rat; settings: 25 μg/mL; for inhibition at 25 µg/mL: Rattus norvegicus, RBL-2H3, read-out: Inhibition Rate (β-hexosaminidase release)
Protocol: (§2) The anti-allergy assay was based mostly on the methods described by Zhu et al. and Yun et al. with slight modification. Rat basophilic leukemia (RBL-2H3) cells were obtained from the Riken Bio-resource Center Cell Bank (Tsukuba, Japan). RBL-2H3 cells were incubated in EMEM medium containing 10% FBS and 1% antibiotics–antimycotics at 37 °C. The cells were seeded on a 96-well plate (2 × 10^5 cells/well). After 24 h of incubation, the medium was supplemented with 0.5 μg/mL anti-DNP (dinitrophenol) mouse immunoglobulin E (IgE) (Sigma-Aldrich). After an additional 24 h of incubation, the medium was replaced with 100 μL of Tyrode buffer. The sample dissolved in DMSO (<0.5% per well) was added, and the cell plate was incubated again for 30 min, then replaced with 100 μL of tyrode buffer containing 50 μg/mL DNP-bovine serum albumin (BSA) (Invitrogen, Carlsbad, CA, USA). After 1 h of incubation, 50 μL of the supernatant was collected from each well and mixed with 50 μL of substrate solution (p-nitrophenyl-N-acetyl-β-glucosaminide, 2 mM; Sigma-Aldrich) in a new 96-well plate. The mixture was incubated at room temperature on a shaker for 3 h. Finally, 100 μL of stop solution was added, and the absorbance was read at 405 nm. A parallel MTT experiment was performed to measure the cell viability. The MTT experiment was done exactly as described.

[7] = Cell viability of RBL-2H3 cells (parallel MTT); format: cell-based, rat; settings: rat; 25 μg/ml, RBL-2H3 cells; read-out: Cell viability
Protocol: as §2

[8] = system: NHDF cells; assay: Skin type I collagen synthesis promoting assay (ELISA, with MTT); format: cell-based, human; settings: 5 μg/mL, fold of control
Protocol: The assay for measuring the promotion of skin collagen synthesis was described by Kishikawa et al.. Adult NHDF cells (Lonza, Tokyo) were routinely maintained in 10% FBS and 1% antibiotic-antimycotic (Invitrogen) in Dulbecco’s modified Eagle’s medium (DMEM, Wako). After growing to confluence, cells at a density of 5 × 10^3 cells/well were seeded on 96-well plates for 24 h before the treatment. The medium was replaced with a mixture of 1 μL of sample solution (DMSO < 0.5% per well) and 99 μL of DMEM supplemented with 0.5% FBS. After 72 h of cultivation, the amount of collagen in the medium was measured using a human type I collagen enzyme-linked immunosorbent assay (ELISA) kit (ACEL, Kanagawa, Japan). The amount of collagen production was calculated using a standard curve prepared by measurement by the same ELISA. The cells remaining in the 96-well plate were subjected to an MTT assay. Ascorbic acid (100 μM, Wako) was used as a positive control.

[9] = system: RBL-2H3 cells; assay: Cell viability of RBL-2H3 cells (parallel MTT); format: cell-based, rat; settings: 25 μg/ml, RBL-2H3 cells
Protocol: as §2

[10] = Cutibacterium acnes, concentration 100 μg/mL
[11] = Mus musculus, B16 cells, read-out: Inhibition rate (100% − melanin synthesis)
[12] = Mus musculus, 10 μg/ml, B16 cells, read-out: Inhibition rate (100% − melanin synthesis)
[13] = Mus musculus, B16 melanoma cells, read-out: IC50 (melanin synthesis)
[14] = Mus musculus, B16 melanoma cells, read-out: IC50 melanin

Row | SMILES | Inhibition rate (100% − cell viability) ([2]; 1 μg/ml) | Inhibition rate (100% − cell viability) ([2]; 2.5 μg/ml) | Inhibition rate (100% − cell viability) ([2]; 5 μg/ml) | Inhibition rate (100% − cell viability) ([2]; 10 μg/ml) | Inhibition rate (100% − cell viability) ([2]; 20 μg/ml) | inhibitory effect on tyrosinase (in words) [3] | inhibitory activity on tyrosinase (in words) [3] | inhibition at 100 µg/mL [4, 10] | S.I (selectivity index, CC50 value/IC50 value) ([5]; B16 melanoma cells) | inhibition at 1 µg/mL [5, 11] | inhibition at 2.5 µg/mL [5, 11] | inhibition at 5 µg/mL [5, 11] | inhibition at 10 µg/mL [5, 12] | IC50 [5, 13] | IC50 [5, 14] | inhibition at 25 µg/mL [6] | viability at 25 μg/ml [7] | further results
1 | CC1(C)CC[C@]2(C(=O)O)CC[C@]3(C)C(=CC[C@@H]4[C@@]5(C)CC[C@H](O)C(C)(C)[C@@H]5CC[C@]43C)[C@@H]2C1 [Compound 2, Oleanolic acid] | 4.9 ± 4.6% | 7.8 ± 4.1% | 17.0 ± 6.2% | 27.4 ± 7.0% | 54.9 ± 2.3% | no inhibitory effect | moderate inhibitory activity | 100.4 ± 0.8% | 1.5 | 9.5 ± 4.6% | 27.8 ± 4.8% | 33.5 ± 6% | 45.9 ± 1.5% | 26.8 µM | 12.2 µg/mL | 5.8 ± 6.7% | 102 ± 6.2% | CC50 at 72 h ([1]; B16 melanoma cells): 18.2 µg/mL and 39.9 µM; MBC ([4]; Cutibacterium acnes, P. acnes, broth microdilution, read-out: MBC): 200 µg/mL (≈ 438 µM); MIC ([4]; Cutibacterium acnes, P. acnes, broth microdilution, read-out: MIC): 100 µg/mL (≈ 219 µM); activity against P. acnes (in words) ([4]; at their maximum solubility): active; inhibition at 20 µg/mL ([5]; Mus musculus, 20 μg/ml, B16 cells, read-out: Inhibition rate (100% − melanin synthesis)): 58.6 ± 2.3%
2 | C=C(C)[C@@H]1CC[C@]2(C(=O)O)CC[C@]3(C)[C@H](CC[C@@H]4[C@@]5(C)CC[C@H](O)C(C)(C)[C@@H]5CC[C@]43C)[C@@H]12 [Compound 4, Betulinic acid] | 1.2 ± 12.0% | 20.8 ± 5.2% | 35.9 ± 5.2% | 58.4 ± 14.1% | 68.1 ± 11.4% | no inhibitory effect | moderate inhibitory activity | < 0% | 1.4 | 35.4 ± 0.5% | 44.8 ± 1.4% | 49.7 ± 3.1% | 54 ± 3.3% | 11.8 µM | 5.3 µg/mL | 29.4 ± 8.1% | 97.9 ± 10.6% | CC50 at 72 h [1]: 7.6 µg/mL and 16.7 µM; inhibition at 0.5 µg/mL ([5]; Mus musculus, 0.5 μg/ml, B16 cells, read-out: Inhibition rate (100% − melanin synthesis)): 23.2 ± 1.4%
3 | C[C@@H]1CC[C@]2(C(=O)O)CC[C@]3(C)C(=CC[C@@H]4[C@@]5(C)C[C@@H](O)C(=O)C(C)(C)[C@@H]5CC[C@]43C)[C@@H]2[C@]1(C)O [Compound 15, 2α, 19α-dihydroxy-3-oxo-12-ursen-28-oic acid] | – | – | 5.6 ± 4.6% | 11.4 ± 3.9% | 26.4 ± 1.4% | – | – | – | – | – | – | – | – | – | – | – | – | CC50 cell viability ([2]; B16 melanoma cells, MTT): > 20.0 µg/mL; CC50 ([2]; read-out: CC50 (cell viability), B16 melanoma cells, MTT): > 42.3 µM; Inhibition Rate (P. acnes growth) ([4]; concentration 100 μg/mL): – (no inhibition); Inhibition rate (100% − melanin synthesis) ([5]; 10 μg/ml, B16 cells): 24.2 ± 1.0%; IC50 melanin ([5]; B16 melanoma cells): > 20.0 µg/mL; IC50 ([5]; B16 melanoma cells, read-out: IC50 (melanin synthesis)): > 42.3 µM; CP/CV value (collagen production %/cell viability %) [8]: 1.1; Inhibition Rate (β-hexosaminidase release) [6]: 0.9 ± 0.0%; Cell viability [9]: 102.1 ± 2.2%
